Patent US20050113413A1, “Naphthalene-1,5-disulfonic acid salts of a substituted 4-amino-1-(pyridylmethyl)piperidine compound” (priority 2003, published 2005)

What was measured:
[1] = target: T1, hM2 muscarinic receptor subtype (Homo sapiens, UniProt P08172); assay: Radioligand binding assay ([3H]NMS displacement), hM2; settings: [3H]NMS at 1 nM, CHO cell membranes, 60 minutes at 37° C.
T1 construct: expressed in transfected cells; membranes prepared
T1 sequence (P08172 1-466): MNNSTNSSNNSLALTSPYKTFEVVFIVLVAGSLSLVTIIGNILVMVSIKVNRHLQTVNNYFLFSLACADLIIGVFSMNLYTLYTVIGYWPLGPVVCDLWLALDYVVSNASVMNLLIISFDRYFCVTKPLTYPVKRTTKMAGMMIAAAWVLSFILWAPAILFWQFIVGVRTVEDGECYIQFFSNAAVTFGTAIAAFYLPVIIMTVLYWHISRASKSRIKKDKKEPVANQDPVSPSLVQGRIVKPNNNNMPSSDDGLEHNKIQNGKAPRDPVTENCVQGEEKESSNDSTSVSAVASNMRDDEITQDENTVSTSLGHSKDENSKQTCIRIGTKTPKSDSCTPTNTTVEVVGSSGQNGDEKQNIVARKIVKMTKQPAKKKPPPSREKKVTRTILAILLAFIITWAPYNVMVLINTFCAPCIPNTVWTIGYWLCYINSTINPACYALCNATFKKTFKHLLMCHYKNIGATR
Method: CHO (Chinese hamster ovary) cell lines stabilely expressing cloned human hM1, hM2, hM3 and hM4 muscarinic receptor subtypes, respectively, were grown to near confluency in medium consisting of HAM's F-12 supplemented with 10% FBS (Fetal Bovine Serum) and 250 μg/mL Geneticin. The cells were grown in a 5% CO2, 37° C. incubator and lifted with dPBS+2 mM EDTA. Cells were collected by 5 minute centrifugation at 650×g, and cell pellets were either stored frozen at −80° C. or membranes were prepared immediately. For membrane preparation, cell pellets were resuspended in lysis buffer and homogenized with a Polytron PT-2100 tissue disrupter (Kinematica AG; 20 seconds×2 bursts). Crude membranes were centrifuged at 40,000×g for 15 minutes at 4° C. […] Protein concentration of the membrane suspension was determined by the method of Lowry, O. et al., (1951) Journal of Biochemistry: 193, 265. […]
Radioligand binding assays were performed in 96-well microtiter plates in a total assay volume of 100 μL. […] Filter plates were rinsed three times with wash buffer (10 mM HEPES) to remove unbound radioactivity. […] The plates were then counted in a PerkinElmer Topcount liquid scintillation counter (PerkinElmer Inc., Wellesley, Mass.). Binding data were analyzed by nonlinear regression analysis with the GraphPad Prism Software package (GraphPad Software, Inc., San Diego, Calif.) using the one-site competition model. […]

[2] = Chemical stability of salt forms (change in purity by HPLC upon storage); assay type: physicochemical; settings: 40° C. and 75% relative humidity, 7 days, HPLC Method D
Method: The chemical stability of each salt form was evaluated by determining the change in purity of the sample upon storage of the salt form at 40° C.
Prior to storage, each salt form was analyzed by HPLC (Method D) to determine sample purity and in particular, to determine the amount of the following impurities present in the sample: • A. 3-[4-{N-[7-(3-(S)-1-Carbamoyl-1,1-diphenylmethyl)pyrrolidin-1-yl)hept-1-yl]-N-(isopropyl)amino}piperidin-1-ylmethyl]-4-methoxy-1-methylpyridinium Salt (Impurity A); • B. 4-{N-[7-(3-(S)-1-Carbamoyl-1,1-diphenylmethyl)pyrrolidin-1-yl)hept-1-yl]-N-(isopropyl)amino}-1-(4-oxo-1,4-dihydropyrid-3-ylmethyl)piperidine (Impurity B).
Approximately 50-100 mg of the salt form was then placed in two heat sealed low density polyethylene bags. The bags were then placed into a stability chamber that was previously set at 40° C. and 75% relative humidity. After 7 days, the bags were removed and the contents were analyzed by HPLC.

## COc1ccncc1CN1CCC(N(CCCCCCCN2CC[C@@H](C(C(N)=O)(c3ccccc3)c3ccccc3)C2)C(C)C)CC1 [Example 6]
[1]
  Ki: < 1 nM
[2]
  % Change in Impurity A: <0.1%
  % Change in Impurity B: <0.1%
[2]; heat sealed polyethylene bags
  % Change in Purity of Salt: 1.2%
